What follows are molecules tested against recombinant Human Phosphodiesterase B2 (PDE4B2) (Homo sapiens, UniProt Q07343) (assay: Human Phosphodiesterase B2 Radiometric Assay). Details: 0.1 μg/mL recombinant PDE4B2; preincubated at 30 C for 30 min; [3H]cyclic AMP 8 nM, stopped after 20 min; yttrium silicate SPA beads; read-out: PDE4B2 pIC50 (converted).
Assay type: biochemical
Method in brief: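 SPA read-out: product 5′AMP binds yttrium silicate beads (added with 18 mM ZnSO4 after 20 min) in preference to [3H]cAMP substrate, given at 8 nM final.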

Sequence of recombinant Human Phosphodiesterase B2 (PDE4B2) (Q07343 1-564 isoform Q07343-2): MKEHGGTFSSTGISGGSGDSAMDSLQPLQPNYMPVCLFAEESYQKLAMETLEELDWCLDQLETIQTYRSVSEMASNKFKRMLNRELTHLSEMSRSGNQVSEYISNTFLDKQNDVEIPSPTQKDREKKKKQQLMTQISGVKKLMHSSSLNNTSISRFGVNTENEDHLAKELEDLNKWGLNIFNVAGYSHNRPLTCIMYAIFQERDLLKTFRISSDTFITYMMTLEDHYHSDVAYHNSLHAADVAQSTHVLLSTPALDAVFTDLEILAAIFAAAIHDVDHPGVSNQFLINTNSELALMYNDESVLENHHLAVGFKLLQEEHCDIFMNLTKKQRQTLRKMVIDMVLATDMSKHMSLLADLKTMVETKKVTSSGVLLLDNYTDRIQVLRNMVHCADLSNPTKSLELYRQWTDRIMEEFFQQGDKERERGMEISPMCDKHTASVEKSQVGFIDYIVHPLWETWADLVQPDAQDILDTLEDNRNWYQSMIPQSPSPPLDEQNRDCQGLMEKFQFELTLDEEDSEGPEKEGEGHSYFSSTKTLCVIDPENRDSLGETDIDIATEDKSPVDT

IC50	Structure (SMILES)
0.0631 nM	Cc1nc(C(=O)N[C@H]2CC[C@@H](NC(=O)c3cc(F)cnc3Oc3cccc(-c4ccc(CCCN5CCCN(C)CC5)cc4)c3)CC2)cs1 [Example 134, N-((1s,4s)-4-(5-fluoro-2-(4′-(3-(4-methyl-1,4-diazepan-1-yl)propyl)biphenyl-3-yloxy)nicotinamido)cyclohexyl)-2-methylthiazole-4-carboxamide]
0.0631 nM	CCc1nc(C(=O)N[C@H]2CC[C@@H](NC(=O)c3cc(F)cnc3Oc3cccc(-c4ccc(CN5C[C@@H](C)N[C@@H](C)C5)cc4)c3)CC2)cs1 [Example 76, N-((1s,4s)-4-(2-(4′-(((3S,5R)-3,5-dimethylpiperazin-1-yl)methyl)biphenyl-3-yloxy)-5-fluoronicotinamido)cyclohexyl)-2-ethylthiazole-4-carboxamide]
0.0501 nM	O=C(N[C@H]1CC[C@@H](NC(=O)c2cc(F)cnc2Oc2cccc(-c3ccc(CCCN4CCNCC4)cc3)c2)CC1)c1cc2n(n1)CCC2 [Example 133, N-((1s,4s)-4-(5-fluoro-2-(4′-(3-(piperazin-1-yl)propyl)biphenyl-3-yloxy)nicotinamido)cyclohexyl)-5,6-dihydro-4H-pyrrolo[1,2-b]pyrazole-2-carboxamide]
0.0501 nM	O=C(N[C@H]1CC[C@@H](NC(=O)c2cc(F)cnc2Oc2cccc(-c3ccc(CCCNCCCO)cc3)c2)CC1)c1cc2ccccn2n1 [Example 159, N-((1s,4s)-4-(5-Fluoro-2-(4′-(3-(3-hydroxypropylamino)propyl)biphenyl-3-yloxy)nicotinamido)cyclohexyl)pyrazolo[1,5-a]pyridine-2-carboxamide]
0.0398 nM	Cc1cc(C(=O)N[C@H]2CC[C@@H](NC(=O)c3cc(F)cnc3Oc3cccc(-c4cccc(CCN5CCNCC5)c4)c3)CC2)nn1C [Example 102, N-((1s,4s)-4-(1,5-dimethyl-1H-pyrazole-3-carboxamido)cyclohexyl)-5-fluoro-2-(3′-(2-(piperazin-1-yl)ethyl)biphenyl-3-yloxy)nicotinamide]
0.794 nM	O=C(N[C@H]1CC[C@@H](NC(=O)c2cc(F)cnc2Oc2cccc(-c3ccc(O)cc3CN3CCOCC3)c2)CC1)c1cccc(O)n1 [Example 40, N-((1s,4s)-4-(5-fluoro-2-(4′-hydroxy-2′-(morpholinomethyl)biphenyl-3-yloxy)nicotinamido)cyclohexyl)-6-hydroxypicolinamide]
0.126 nM	COCc1nc(C(=O)N[C@H]2CC[C@@H](NC(=O)c3cc(F)cnc3Oc3cccc(-c4ccc(O)cc4CN4CCOCC4)c3)CC2)cs1 [Example 63, N-((1s,4s)-4-(5-fluoro-2-(4′-hydroxy-2′-(morpholinomethyl)biphenyl-3-yloxy)nicotinamido)cyclohexyl)-2-(methoxymethyl)thiazole-4-carboxamide]
0.1 nM	Cc1nc(C(=O)N[C@H]2CC[C@@H](NC(=O)c3cc(F)cnc3Oc3cccc(-c4ccc(CN5C[C@@H](C)N[C@@H](C)C5)c(O)c4)c3)CC2)cs1 [Example 98, N-((1s,4s)-4-(2-(4′-(((3S,5R)-3,5-dimethylpiperazin-1-yl)methyl)-3′-hydroxybiphenyl-3-yloxy)-5-fluoronicotinamido)cyclohexyl)-2-methylthiazole-4-carboxamide]
0.0251 nM	Cc1cc(C(=O)N[C@H]2CC[C@@H](NC(=O)c3cc(F)cnc3Oc3cccc(-c4ccc(CCN5CCN(C(C)C)CC5)cc4)c3)CC2)nn1C [Example 83, N-((1s,4s)-4-(1,5-dimethyl-1H-pyrazole-3-carboxamido)cyclohexyl)-5-fluoro-2-(4′-(2-(4-isopropylpiperazin-1-yl)ethyl)biphenyl-3-yloxy)nicotinamide]
0.0398 nM	Cc1cc(C)n2ncc(C(=O)N[C@H]3CC[C@@H](NC(=O)c4cc(F)cnc4Oc4cccc(-c5ccc(CN6CCCN(CCO)CC6)cc5CN5CCSCC5)c4)CC3)c2n1 [Example 182, N-((1s,4s)-4-(5-Fluoro-2-(4′-((4(2-hydroxyethyl)-1,4-diazepan-1-yl)methyl)-2′-(thiomorpholinomethyl)biphenyl-3-yloxy)nicotinamido)cyclohexyl)-5,7-dimethylpyrazolo[1,5-a]pyrimidine-3-carboxamide]
0.0631 nM	Cc1cccc2nc(C(=O)N[C@H]3CC[C@@H](NC(=O)c4cc(F)cnc4Oc4cccc(-c5ccc(CN6C[C@@H](C)N[C@@H](C)C6)cc5)c4)CC3)cn12 [Example 48, N-((1s,4s)-4-(2-(4′-(((3S,5R)-3,5-dimethylpiperazin-1-yl)methyl)biphenyl-3-yloxy)-5-fluoronicotinamido)cyclohexyl)-5-methylimidazo[1,2-a]pyridine-2-carboxamide]
0.0158 nM	C[C@H]1COCCN1Cc1cc(CN2CCCN(CCO)CC2)ccc1-c1cccc(Oc2ncc(F)cc2C(=O)N[C@H]2CC[C@@H](NC(=O)c3cccc4[nH]cnc34)CC2)c1 [Example 180, N-((1s,4s)-4-(5-Fluoro-2-(4′-((4-(2-hydroxyethyl)-1,4-diazepan-1-yl)methyl)-2′-(((S)-3-methylmorpholino)methyl)biphenyl-3-yloxy)nicotinamido)cyclohexyl)-1H-benzo[d]imidazole-4-carboxamide]
0.501 nM	O=C(N[C@H]1CC[C@@H](NC(=O)c2cc(F)cnc2Oc2cccc(-c3ccc(O)cc3CN3CCOCC3)c2)CC1)c1ccc(O)cc1 [Example 31, 5-fluoro-2-(4′-hydroxy-2′-(morpholinomethyl)biphenyl-3-yloxy)-N-((1s,4s)-4-(4-hydroxybenzamido)cyclohexyl)nicotinamide]
0.126 nM	Cc1nc(C(=O)N[C@H]2CC[C@@H](NC(=O)c3cc(F)cnc3Oc3cccc(-c4cccc(CCCN5CCNCC5)c4)c3)CC2)cs1 [Example 131, N-((1s,4s)-4-(5-fluoro-2-(3′-(3-(piperazin-1-yl)propyl)biphenyl-3-yloxy)nicotinamido)cyclohexyl)-2-methylthiazole-4-carboxamide]
0.126 nM	O=C(N[C@H]1CC[C@@H](NC(=O)c2cc(F)cnc2Oc2cccc(-c3ccc(CN4CCNCC4)cc3)c2)CC1)c1cn2c(n1)CCCC2 [Example 1, N-((1s,4s)-4-(5-fluoro-2-(4′-(piperazin-1-ylmethyl)biphenyl-3-yloxy)nicotinamido)cyclohexyl)-5,6,7,8-tetrahydroimidazo[1,2-a]pyridine-2-carboxamide]
0.02 nM	Cc1cccc(C(=O)N[C@H]2CC[C@@H](NC(=O)c3cc(F)cnc3Oc3cccc(-c4ccc(O)cc4CN4CCCOCC4)c3)CC2)n1 [Example 14, N-((1s,4s)-4-(2-(2′-((1,4-oxazepan-4-yl)methyl)-4′-hydroxybiphenyl-3-yloxy)-5-fluoronicotinamido)cyclohexyl)-6-methylpicolinamide]
0.02 nM	Cc1cc(C(=O)N[C@H]2CC[C@@H](NC(=O)c3cc(F)cnc3Oc3cccc(-c4ccc(CCN5C[C@@H](C)N[C@@H](C)C5)cc4)c3)CC2)nn1C [Example 82, N-((1s,4s)-4-(1,5-dimethyl-1H-pyrazole-3-carboxamido)cyclohexyl)-2-(4′-(2-((3S,5R)-3,5-dimethylpiperazin-1-yl)ethyl)biphenyl-3-yloxy)-5-fluoronicotinamide]
0.02 nM	Cn1ccc(C(=O)N[C@H]2CC[C@@H](NC(=O)c3cc(F)cnc3Oc3cccc(-c4ccc(CN5CCSCC5)cc4CN4CCOCC4)c3)CC2)n1 [Example 199, 5-fluoro-N-((1s,4s)-4-(1-methyl-1H-pyrazole-3-carboxamido)cyclo-hexyl)-2-(2′-(morpholinomethyl)-4′-(thiomorpholinomethyl)biphenyl-3-yloxy)nicotinamide]
0.0631 nM	C[C@@H]1CN(Cc2cc(-c3cccc(Oc4ncc(F)cc4C(=O)N[C@H]4CC[C@@H](NC(=O)c5cccc6[nH]cnc56)CC4)c3)ccc2O)C[C@H](C)N1 [Example 94, N-((1s,4s)-4-(2-(3′-(((3S,5R)-3,5-dimethylpiperazin-1-yl)methyl)-4′-hydroxybiphenyl-3-yloxy)-5-fluoronicotinamido)cyclohexyl)-1H-benzo[d]imidazole-4-carboxamide]
0.0251 nM	Cc1nc(C(=O)N[C@H]2CC[C@@H](NC(=O)c3cc(F)cnc3Oc3cccc(-c4ccc(O)cc4CN4CCOCC4)c3)CC2)cs1 [Example 34, N-((1s,4s)-4-(5-fluoro-2-(4′-hydroxy-2′-(morpholinomethyl)biphenyl-3-yloxy)nicotinamido)cyclohexyl)-2-methylthiazole-4-carboxamide]
0.316 nM	O=C(N[C@H]1CC[C@@H](NC(=O)c2cc(F)cnc2Oc2cccc(-c3ccc(O)cc3CN3CCOCC3)c2)CC1)c1cccc(O)c1 [Example 32, 5-fluoro-2-(4′-hydroxy-2′-(morpholinomethyl)biphenyl-3-yloxy)-N-((1s,4s)-4-(3-hydroxybenzamido)cyclohexyl)nicotinamide]
0.0631 nM	C[C@@H]1CN(CCCc2cccc(-c3cccc(Oc4ncc(F)cc4C(=O)N[C@H]4CC[C@@H](NC(=O)c5cc6n(n5)CCC6)CC4)c3)c2)C[C@H](C)N1 [Example 172, N-((1s,4s)-4-(2-(3′-(3-((3S,5R)-3,5-Dimethylpiperazin-1-yl)propyl)biphenyl-3-yloxy)-5-fluoronicotinamido)cyclohexyl)-5,6-dihydro-4H-pyrrolo[1,2-b]pyrazole-2-carboxamide]
0.126 nM	Cc1cccc2nc(C(=O)N[C@H]3CC[C@@H](NC(=O)c4cc(F)cnc4Oc4cccc(-c5ccc(CN6CCCN(C)CC6)cc5)c4)CC3)cn12 [Example 64, N-((1s,4s)-4-(5-fluoro-2-(4′-((4-methyl-1,4-diazepan-1-yl)methyl)biphenyl-3-yloxy)nicotinamido)cyclohexyl)-5-methylimidazo[1,2-a]pyridine-2-carboxamide]
0.0316 nM	Cc1cccc2nc(C(=O)N[C@H]3CC[C@@H](NC(=O)c4cc(F)cnc4Oc4cccc(-c5ccc(CCCNC(C)C)cc5)c4)CC3)cn12 [Example 116, N-((1s,4s)-4-(5-fluoro-2-(4′-(3-(isopropylamino)propyl)biphenyl-3-yloxy)nicotinamido)cyclohexyl)-5-methylimidazo[1,2-a]pyridine-2-carboxamide]
